Molecular target: Glycogen synthase kinase-3 beta (Homo sapiens, UniProt P49841)
Assay: Biochemical Assay: The ingredients required for this purpose are mixed in a black 384-well microtiter plate with transparent base (from Greiner, catalog number 781092). The requirements in this connection for each well of the 384-well microtiter plate are 5 nM GSK3β (from Upstate, catalog number xy), 40 μM GSK3β substrate GSM (sequence H-RRRPASVPPSPSLSRHS-(pS)-HQRR, from Upstate, catalog number 2-533), 30 μM nicotinamide adenine dinucleotide NADH (Roche Diagnostics, catalog number 10107735), 50 μM adenosine triphosphate ATP (from Sigma, catalog number A7966) and 2 mM phosphoenolpyruvate (from Roche, catalog number 128112). The required reaction buffer in which the biochemical reaction takes place consists of 50 mM Trizma hydrochloride Tris-HCl pH: 7.5 (from Sigma, catalog number T3253), 5 mM magnesium chloride MgCl2 (from Sigma, catalog number M8266), 0.2 mM DL-dithiothreitol DTT (from Sigma, catalog number D9779), 2 mM ethylenediaminetetraacetic acid EDTA (from Sigma, catalog number E6758), 0.01% Triton X-100 (from Sigma, catalog number T8787) and 0.05% bovine serum albumin BSA (from Sigma, catalog number B4287). Active substances are dissolved in dimethyl sulfoxide DMSO (from Sigma, catalog number D8418) in a concentration of 10 mM. […]

Chain of Glycogen synthase kinase-3 beta (P49841 whole entry): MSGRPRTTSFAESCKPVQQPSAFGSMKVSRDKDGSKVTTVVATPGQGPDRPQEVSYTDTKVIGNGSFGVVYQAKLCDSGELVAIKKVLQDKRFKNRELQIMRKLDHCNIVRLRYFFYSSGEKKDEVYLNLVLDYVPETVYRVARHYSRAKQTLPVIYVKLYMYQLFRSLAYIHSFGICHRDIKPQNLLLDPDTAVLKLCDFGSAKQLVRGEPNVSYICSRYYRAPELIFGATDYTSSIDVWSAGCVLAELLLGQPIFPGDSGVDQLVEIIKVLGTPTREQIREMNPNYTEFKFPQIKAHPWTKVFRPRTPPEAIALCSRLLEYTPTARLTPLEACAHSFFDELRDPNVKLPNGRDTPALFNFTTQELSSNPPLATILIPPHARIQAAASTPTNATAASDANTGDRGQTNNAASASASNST

Question: How did the IC50 turn out when `N#Cc1sc(NCCNc2nc(-c3ccc(Cl)cc3Cl)cn3ccnc23)nc1N` was run?
Answer: Its IC50 is 16 nM.
